“Also recorded” adds a separate entry of the source.
Columns and labels:
KOPTK1 = experiment: Alamar blue proliferation assay, KOPTK1; assay type: cell-based, human; conditions: 10 μM, up to 6 days
Experimental: (§1) Human T-ALL cell lines RPMI 8402 and KOPTK1, and pancreatic cancer cell line PANC1 as well as nRas driven melanoma cells were seeded in a 96 well plate and treated with 10 μM concentration of 6-(4-Tert-Butylphenoxy)Pyridin-3-Amine (I3) and DAPT for several days. Their growth inhibitory effects were compared with cells treated with equal amount of DMSO. Using Alamar blue assay, the growth kinetics of RPMI 8402 and KOPTK1 were followed for upto 6 days, while PANC1 and nRas melanoma cells were monitored for 4 days. 6-(4-Tert-Butylphenoxy)Pyridin-3-Amine (I3) treatment of RPMI 8402, KOPTK1. […] Statistical analyses were done using student's t.test. *=p value<0.05. ns=not significant.
(§2) Alamarblue® proliferation assays were performed to determine the growth kinetics of Notch inhibitor treated cells. Alamar Blue® consists of a cell permeable substrate resazurin. In metabolically active and proliferating cells, resazurin is converted to resorufin due to an intrinsic reducing power of live cells and produces a red fluorescence. Therefore production of resorufin serves as an indicator of the viability of the cell population.
(§3) Proliferation assays were performed by seeding 5000 cells/well in a 96 well plate. Cells were treated with DMSO or Notch inhibitors for different time intervals. […] Alamarblue readout was taken using Tecan F500 (Tecan) multiplate reader. […]

[1] = tested on: HCC1187 human breast cancer cell line; experiment: Alamar blue proliferation assay, HCC1187; assay type: cell-based; conditions: 6 days
Experimental: (§4) FIGS. 5A-5E show 6-(4-Tert-Butylphenoxy)Pyridin-3-Amine (I3) blocks NICD dependent growth of human cancer cells. […] Western blot analyses were carried out for Hes1 protein using Hes1 specific antibodies. […] Growth kinetics of the parental cell line was followed over 5 days using Alamar blue readout. […] This mutation renders this cell line insensitive to γ-secretase inhibitor treatment. […] The cells were treated with DMSO, γ-secretase inhibitor DAPT and I3 for 6 days. Alamar blue readout was taken at day 0, day 2, day 4 and day 6. Eight replicates were used for each treatment and time point. […] P values were calculated using Student's t.test. *=p value<0.05. ns=not significant.
as §2, §3

PANC1 = experiment: Alamar blue proliferation assay, PANC1; assay type: cell-based, human; conditions: 10 μM, 4 days
Experimental: as §1, §2, §3

DND41-Parental cell line = experiment: Alamar blue proliferation assay, DND41-Parental; assay type: cell-based, human; conditions: over 5 days
Experimental: as §4
Alamarblue® proliferation assays were performed to determine the growth kinetics of Notch inhibitor treated cells. […] In metabolically active and proliferating cells, resazurin is converted to resorufin due to an intrinsic reducing power of live cells and produces a red fluorescence. […]
Proliferation assays were performed by seeding 5000 cells/well in a 96 well plate. […] Alamarblue readout was taken using Tecan F500 (Tecan) multiplate reader.
6-(4-Tert-Butylphenoxy)Pyridin-3-Amine (I3) can block NICD mediated activation of the Notch pathway (FIGS. 1A-D). […] In addition, these two cell lines were also monitored over several days for anti-proliferative effects of 6-(4-Tert-Butylphenoxy)Pyridin-3-Amine (I3) and DAPT.

[2] = tested on: Notch-independent RAJI cells; experiment: Alamar blue proliferation assay, RAJI; assay type: cell-based; conditions: control line with no known Notch mutations
Experimental: as §2
Proliferation assays were performed by seeding 5000 cells/well in a 96 well plate. Cells were treated with DMSO or Notch inhibitors for different time intervals. Each treatment for every time interval was carried out in 8 replicates. To determine the growth kinetics, 10 μl of Alamar Blue® (Invitrogen) was added to each well and incubated for 4 hours. Alamarblue readout was taken using Tecan F500 (Tecan) multiplate reader.
As treatment of the human T-ALL cell lines and PANC1 pancreatic cancer cell line with 6-(4-Tert-Butylphenoxy)Pyridin-3-Amine (I3) induced a downregulation of Notch signalling, Applicants questioned whether this inhibition of the pathway translates into growth arrest in cancer cells. To this end, RPMI 8402, KOPTK1, PANC1 and nRas driven melanoma cell lines were grown in the presence or absence of 6-(4-Tert-Butylphenoxy)Pyridin-3-Amine (I3) for several days and their proliferative index was measured using the Alamar blue assay. […]

[3] = tested on: Notch signalling via DL4:N1 ligand-receptor pair (Notch1); experiment: DL4:N1 coculture assay, Notch driven luciferase reporter; assay type: cell-based, mouse; conditions: 24 hours; for Notch signalling activation (Notch driven luciferase), concentration dependence: 2, 5 and 10 μM
[4] = tested on: Notch1-intracellular domain (NICD) mediated Notch signalling; experiment: NICD transfected HeLa cells, 12×CSL luciferase reporter; assay type: cell-based; conditions: HeLa cells transfected with NICD; I3 2-40 μM, DAPT 5-40 μM
Source text: To measure the Notch signalling activation, CSL/RBP-jk consensus DNA binding sequences were cloned in a head to tail conformation in the pGL4 luciferase vector (Promega), thus named 12×CSL/RBP-jjk luciferase vector. In order to determine the Notch pathway activation in chemical compound screening assay, 12×CSL/RBP-jk consensus DNA binding sequences were cloned into pGL4.26.luciferase vector (Promega). As an internal control for transfection efficiency, SV40 Renilla vector was used (Promega).
NICD-GFP overexpression studies were performed using pEGFP-C1-NICD expression plasmid. The FLAG-CMV2 plasmid expressing MAML1-FLAG was a kind gift from Dr. Lizi Wu, Harvard Medical School, Boston.
The transfected cells were treated with an increasing concentration of I3 and DAPT.

[5] = tested on: Notch signalling via DL4:N2 ligand-receptor pair (Notch2); experiment: DL4:N2 coculture assay, Notch driven luciferase reporter; assay type: cell-based; conditions: 10 μM, 24 hours
Source text: Next Applicants investigated whether I3 could block pathway activation via other Notch receptors or is it specific to Notch1 signalling. To address this, a coculture assay was used where Notch signalling was activated via DL4:N1 or DL4:N2 ligand receptor pairs.

RPMI 8402 = experiment: Alamar blue proliferation assay, RPMI 8402; assay type: cell-based, human; conditions: 10 μM, up to 6 days
Experimental: as §1, §2, §3

Structure (SMILES)	proliferation (Alamar blue) (KOPTK1)	proliferation (Alamar blue) [1]	proliferation (Alamar blue) (PANC1)	proliferation (Alamar blue) (DND41-Parental cell line)	proliferation [2]	Notch signalling activation (Notch driven luciferase), concentration dependence [3]	IC50 value, Notch signalling in DL4:N1 coculture assay ([3]; increasing concentration 2-10 μM)	NICD mediated Notch signalling activation [4]	DL4:N2 (Notch2) driven pathway activation [5]	proliferation (Alamar blue) (RPMI 8402)
CC(C)(C)c1ccc(Oc2ccc(N)cn2)cc1 [I3, 6-(4-Tert-Butylphenoxy)Pyridin-3-Amine]	induced a significant proliferation block; also recorded: caused a significant reduction in their growth potential	significantly induced a proliferation block; also recorded: caused statistically significant inhibition of cell proliferation	induced a significant proliferation block; also recorded: caused a significant reduction in their growth potential	caused a significant proliferative block; also recorded: caused a proliferation arrest	neither DAPT nor 6-(4-Tert-Butylphenoxy)Pyridin-3-Amine (I3) had any effect on the proliferation	blocks Notch signalling in a concentration dependent manner; also recorded: causes a concentration dependent decrease in Notch signalling activation	in the lower μM range	could block pathway activation in a dose-dependent manner; also recorded: could also block pathway activation by Notch1-intracellular domain (NICD) and Notch2-intracellular domain (N2-ICD); also recorded: led to an attenuation of the signalling; also recorded: inhibits pathway activation via intracellular domains of Notch1 (NICD) and Notch2 (N2-ICD); also recorded: found to block NICD mediated pathway activation	caused an inhibition of Notch signalling via both DL4:N1 and DL4:N2 ligand-receptor pairs; also recorded: block Notch1 and Notch2 induced pathway activation	induced a significant proliferation block; also recorded: caused a significant reduction in their growth potential
C[C@H](NC(=O)Cc1cc(F)cc(F)c1)C(=O)N[C@H](C(=O)OC(C)(C)C)c1ccccc1 [DAPT, N—[N-(3,5-difluorophenacetyl-Lalanyl)]-(S)-phenylglycine t-butyl ester, reference compound]	induced a significant proliferation block	did not inhibit proliferation; also recorded: did not alter the growth kinetics	induced a significant proliferation block	caused a significant proliferative block; also recorded: caused a proliferation arrest	neither DAPT nor 6-(4-Tert-Butylphenoxy)Pyridin-3-Amine (I3) had any effect on the proliferation	causes a concentration dependent decrease in Notch signalling activation		had no effect on the signalling activation; also recorded: had no effect on Notch signalling activation mediated by NICD	block Notch1 and Notch2 induced pathway activation	induced a significant proliferation block

Source: patent US10054581B1, “Inhibitors of notch signaling pathway and use thereof in treatment of cancers” (Ecole Polytechnique Federale de Lausanne (EPFL), priority 2011, dated 2018)
